“And” between values parts separate entries of the source, which are not always exact repeats. Equal values may be shown once. Where no end group is shown, it is not given here.

Data set [1] relates to human erythrocytes. The experiment in a line: Hemolytic activity. Type of data set: cell-based. As for the experimental part:
Hemolytic assay was performed as described. Freshly drawn human erythrocytes were rinsed three times with PBS and resuspended in PBS to 4% (v/v). One hundred microliters of the suspension was added to 96-well microtiter plate containing equal volume of peptides to give final concentrations of peptides encompassing the range of 1.96–250 μg/ml. PBS and 0.1% (v/v) Triton-X 100 were used as 0% and 100% hemolytic control respectively. Plates were incubated at 37°C for 1 hr. Subsequently, the plate was centrifuged and the supernatant was transferred to a new plate. The release of hemoglobin in the supernatant was monitored at absorbance of 450 nm using Glomax Multidetection system (Promega, USA). Results were pooled from three independent experiments and expressed as mean ± SD. HC10 and HC50 were defined as the peptide concentrations causing 10% and 50% hemolysis on human erythrocytes, respectively. Hmax was the percentage hemolysis observed at the maximum concentration as defined throughout this study (all peptides 250 μg/ml, PEN 4 μg/ml).

In data set [2] the test system is NL20 cell line. The experiment in a line: Cytotoxicity against human cell lines (CellTiter 96 AQueous). Format: cell-based. On the procedure:
(§1) Both the NL20 human lung bronchial normal epithelial cell line and the A549 human lung alveolar adenocarcinoma epithelial cell line were used for cell cytotoxicity tests. Besides investigating the cytotoxicity of peptides, differences in cell viability between the two cell lines can be used to evaluate the cell line selectivity and to assess potential anticancer potential of the peptides. NL20 cell line was grown in Ham's F12 medium and A549 cell line was grown in Roswell Park Memorial Institute medium. Both media were supplemented with fetal bovine serum to 10% (v/v) as growth medium or 2% (v/v) as maintenance medium in cell cytotoxicity testing. The assay was performed as described by Lee et al.[26]. NL20 cells was seeded overnight at 3 × 10^4 cells/well in 96-well cell culture-treated flat bottom microtiter plate and treated with serial dilutions of peptide at a final concentration of 1.95–250 μg/ml. PEN was tested from 0.03–4 μg/ml, the same range used to classify the susceptibility of pneumococcal isolates in this study. Test using A549 cells followed the same procedures with 1 × 10^4 cells/well. Plates were incubated at 37°C under 5% CO2 for 24, 48, and 72 hrs. Cell viability was detected by using CellTiter 96® AQueous Non-Radioactive Cell Proliferation assay (Promega, USA) and the colorimetric changes were read with Glomax multidetection system (Promega, USA) at OD 490 nm. Results were pooled from three independent experiments and expressed as mean ± SD. […] Imax was the percentage of cell viable treated with peptides/PEN at the maximum concentration as defined throughout this study (all peptides 250 μg/ml, PEN 4 μg/ml).

In data set [3] the test system is A549 cell line. The data set is described as above. Format: cell-based. On the procedure:
as §1

Data set [4] relates to PSSP. Format: cell-based, Streptococcus pneumoniae. The following applies: 30 min post treatment, 2× MIC. On the procedure: (§2) This assay was performed to evaluate the killing kinetics of peptides. One PRSP, PISP, and PSSP isolate were each grown and prepared to 5 × 10^6 CFU/ml. Each isolate in CAMHB was challenged with peptides at two times the respective MIC values. At the indicated time intervals (0, 30, 60, 120, 150, 180, 210, and 240 min; “0” indicate pretreatment), 10 μl of suspension was removed and immediately serially diluted in cold phosphate-buffered saline to arrest further reaction before spread-plated on MHA to obtain viable colony counts. The percentage cell recovered was calculated by dividing the surviving CFU of the treated cells over the surviving CFU of the untreated control cells at the respective time points. Results were pooled from three independent experiments and expressed as mean ± standard deviation (SD).

Data set [5] deals with PRSP, PISP, and PSSP. Format: cell-based, Streptococcus pneumoniae. The following applies: average of PRSP, PISP and PSSP, 30 min post treatment, 2× MIC. As for the experimental part: as §2
The subject of data set [6] is MRSA. Format: cell-based, methicillin-resistant S. aureus. The following applies: Gram-positive, clinical isolate; broth microdilution, CAMHB, peptides 1.96–250 μg/ml. The text has this:
All bacterial strains were obtained from Department of Medical Microbiology, University of Malaya. Clinical isolates were previously obtained from University of Malaya Medical Centre and maintained in the laboratory. Sheep blood agar was used for pneumococcal cultivation purpose. Nutrient agar was used for cultivating E. coli ATCC 25922, S. aureus ATCC 25923, and P. aeruginosa ATCC 15442, Acinetobacter baumanii ATCC 15308, and one clinical isolate for each MRSA, E. cloacae, Citrobacter spp., and K. pneumoniae. For antimicrobial testing, Mueller-Hinton agar (MHA) and cationically-adjusted MHB (CAMHB) were prepared according to the Clinical and Laboratory Standard Institute guidelines. MHA for S. pneumoniae was supplemented with 5% (v/v) defibrinated sheep blood and 5% laked horse blood for CAMHB. All bacterial cultures were stored in multiple vials in brain heart infusion broth supplemented with 10% (v/v) glycerol at −80°C to avoid repeated freeze-thawed cycles on the cells. All freeze-stocked strains were passaged twice prior to experimentation.
Procedures were performed to determine the MIC of peptides according to the CLSI guidelines[21] against 60 pneumococcal isolates which consisted of 20 isolates each for PRSP, PISP, and PSSP. Strains were grown for 18–24 hrs at 37°C under 5% CO2. Direct suspension of the colonies were made in CAMHB and adjusted to OD625 0.08–0.1 which corresponds to 1 ~ 2 × 10^8 CFU/ml followed by serial ten-fold dilutions to give 1 × 10^6 CFU/ml. Fifty microliters of bacterial suspension was then aliquoted to 96-well round bottom microtiter plates containing equal volume of serially diluted peptides to give final concentrations of peptides encompassing the range of 1.96–250 μg/ml. […] The plates were incubated for 18–24 hrs at 37°C under 5% CO2. MIC was read as the concentration of peptide producing complete inhibition on the visible growth of the test organism. Results were pooled from three independent experiments. MIC range was defined as the range of concentrations where the peptides produce detectable antimicrobial activity. Effective percentage (EP) was the proportion of pneumococcal isolates inhibited within the MIC range. Since the isolates tested were obtained prior to 2008 where major revision in antibiotic susceptibility breakpoints were introduced, thus the pneumococci were defined according to the PEN susceptibility breakpoint (prior 2008) which corresponds to the PEN (oral penicillin V) breakpoint of the revised criteria.
The broad spectrum antibacterial activity of the peptides against a panel of eight clinically important bacteria was also determined, this includes S. aureus ATCC 25923, E. coli ATCC 25922, P. aeruginosa ATCC 15442, A. baumanii ATCC 15308, and one clinical isolate each for MRSA, E. cloacae, Citrobacter spp., and K. pneumoniae.
(Broth dilution looks for growth in wells or tubes with falling amounts of substance.)

The mark [7] stands for this setting: bound stated in text for 24, 48 and 72 hrs together.
[8] abbreviates: concentration reducing cell viability to 50%, 24 hrs, 2% FBS medium, OD 490 nm, mean ± SD of three independent experiments.
Setting [9] is: concentration reducing cell viability to 50%, 48 hrs, 2% FBS medium, OD 490 nm, mean ± SD of three independent experiments.
[10] abbreviates: concentration reducing cell viability to 50%, 72 hrs, 2% FBS medium, OD 490 nm, mean ± SD of three independent experiments.
Where [11] appears, read: percentage cell viability at the highest concentration (peptides 250 μg/ml; PEN 4 μg/ml), 24 hrs, mean ± SD.
[12] abbreviates: percentage cell viability at the highest concentration (peptides 250 μg/ml; PEN 4 μg/ml), 48 hrs, mean ± SD.
Where [13] appears, read: percentage cell viability at the highest concentration (peptides 250 μg/ml; PEN 4 μg/ml), 72 hrs, mean ± SD.

The substance GLFDKWAWWRWRR-NH2 [DM1] showed an HC10 in data set [1] (concentration causing 10% hemolysis, 4% (v/v) erythrocytes in PBS, 37°C 1 hr, absorbance 450 nm, mean ± SD of three independent experiments) above 250 µg/mL. Moreover, the 50% haemolytic concentration (HC50) (in general, the concentration that lyses half of the red blood cells) in data set [1] (concentration causing 50% hemolysis, 4% (v/v) erythrocytes in PBS, 37°C 1 hr, absorbance 450 nm, three independent experiments) was above 250 µg/mL. In addition, the Hmax in data set [1] (percentage hemolysis at the highest concentration tested (all peptides 250 μg/ml; PEN 4 μg/ml), mean ± SD of three independent experiments) was < 1.0% and 0.5 ± 0.1%. Besides, the “IC50 against NL20 cell line, over all time points” value in data set [2] (setting [7]) was above 220 mg/L. The “IC50, NL20 cell line, 24 hrs” value in data set [2] (setting [8]) amounted to 221.8 ± 7.8 mg/L. Further, the “IC50, NL20 cell line, 48 hrs” value in data set [2] (setting [9]) came out at 235.7 ± 12.9 mg/L. The “IC50, NL20 cell line, 72 hrs” value in data set [2] (setting [10]) stood at 242.2 ± 7.3 mg/L. Moreover, in data set [2] (setting [11]), the “Imax, NL20 cell line, 24 hrs” value turned out to be 35.3 ± 6.6%. For the same substance, the “Imax, NL20 cell line, 48 hrs” value in data set [2] (setting [12]) is listed as 42.2 ± 8.6%. Also, the “Imax, NL20 cell line, 72 hrs” value in data set [2] (setting [13]) was 45.9 ± 4.3%. Besides, the “IC50 against A549 cell line, over all time points” value in data set [3] (setting [7]) was at least 195.0 mg/L. The “IC50, A549 cell line, 24 hrs” value in data set [3] (setting [8]) was determined as 215.3 ± 19.7 mg/L. The “IC50, A549 cell line, 48 hrs” value in data set [3] (setting [9]) was determined as 195.0 ± 25.2 mg/L. The “IC50, A549 cell line, 72 hrs” value in data set [3] (setting [10]) is above 250 mg/L. Also, the “Imax, A549 cell line, 24 hrs” value in data set [3] (setting [11]) came to 38.6 ± 6.2%. The “Imax, A549 cell line, 48 hrs” value in data set [3] (setting [12]) was 39.8 ± 7.7%. Further, the “Imax, A549 cell line, 72 hrs” value in data set [3] (setting [13]) was found to be 66.2 ± 7.2%. In data set [4], the “difference in killing kinetics over PEN, PSSP” value is on record as 38.4%. Also, the “difference in killing kinetics over PEN, average” value in data set [5] was determined as 48.5%. In data set [6], the “MIC, MRSA” value is 62.5 mg/L.

(Values after publication PMC4434909, “In vitro properties of designed antimicrobial peptides that exhibit potent antipneumococcal activity and produces synergism in combination with penicillin” (Scientific Reports, 2015).)
